Drawing on ChEMBL document CHEMBL1148909, “Antineoplastic agents. 535. Isolation and structure of plakorstatins 1 and 2 from the Indo-Pacific sponge Plakortis nigra” (2004), this text covers EC50 for two compounds.

The assay deals with P388. Kind of assay: Growth inhibition of mouse P388 cells. The settings on record: read-out: ED50 (the source's name). It is filed as functional.

SMILES strings stand for the structures. Values after ≈ are worked out from the molar mass of the structure shown.

In the case of `CC/C(=C\[C@@]1(CC)C[C@H](CC)[C@H](CC(=O)OC)OO1)[C@@H]1O[C@@H]1CC` (single isomer, unassigned) [PLAKORSTATIN 2], the EC50 was found to be 0.91 mg/L (≈ 2.67 µM).

Regarding `CC/C(=C\[C@@]1(CC)C[C@H](CC)[C@H](CC(=O)OC)OO1)[C@H]1O[C@H]1CC` (single isomer, unassigned) [PLAKORSTATIN 1], the EC50 stood at 1.1 mg/L (≈ 3.23 µM).
